Columns and labels:
[1] = tested on: gastric damage induced by indomethacin; experiment: Indomethacin (80 mg/kg) gastric damage in rats, percent of gastric area damaged by image analysis; assay type: in vivo, Male CD-Sprague-Dawley rats; conditions: indomethacin + vehicle 5.56 ± 0.48
Procedure: The following test in rats was carried out to further establish the ability of gabapentin and Pregabalin to reduce the gastrointestinal damage caused by NSAIDS.
Male CD-Sprague-Dawley rats (132-202 g) were received and housed in a room with controlled temperature, humidity, and 12-hour light/dark cycle. After a period of acclimatization of 4 to 5 days, and after a 24-hour food fasting period, animals were used for the study described below.
Gabapentin or pregabalin (CI-1008) were dissolved in water and administered orally at the following doses: 1, 10, 100, and 200 mg/kg in a volume of 1 mL. Control animals were dosed with an equal volume of vehicle (1 mL of water). Sixty minutes later, all the animals received 1 mL of a solution of 80 mg/kg indomethacin dissolved in 5% aqueous NaHCO3. Control animals received 1 mL of 5% aqueous NaHCO3 orally. Experimental groups were as follows:
Animals were sacrificed by decapitation 4 hours post-indomethacin administration. The stomach was removed and opened along the greater curvature and its image digitized and stored on an optical disk using a 486-based PC computer equipped with CUE3 system imaging analysis software (Olympus Corp., Marietta, Georgia, USA). Two 6-mm biopsies were taken from a constant region of the gastric mucosa located in each side of the glandular portion of the stomach and their PGE2 content was measured using a commercially available ELISA kit (Assay Designs Inc., Ann Arbor, Michigan, USA). The presence of gastric damage was determined using the retrieved electronic image, and the extent of damage was measured using the CUE3 imaging software. Data are expressed as a percent of gastric area damaged and the PGE2 content (pg/mL).

[2] = tested on: Inflammatory Colonic Pain Induced by Intramural Injection of Formalin 5%; experiment: Inflammatory colonic pain induced by intramural injection of formalin 5% in rats; assay type: in vivo, Adult female Sprague-Dawley rats; conditions: for % Antinociception: intracolonic formalin 5%, 50 µL/rat; for pain score induced by intracolonic formalin (in words): gabapentin 100, 300, 500 mg/kg sc, CI-1008 100, 200 mg/kg sc
Procedure: The GABA analogs were evaluated in another model to determine their effect on inflammatory visceral pain.
Administration of formalin into the wall of the rat colon causes acute inflammation and visceral pain. The aim of this study was to evaluate the antinociceptive activity of gabapentin and CI-1008 in visceral pain induced by colonic intrapariental injection of formalin.
Adult female Sprague-Dawley rats weighing 240 to 260 g were used in the study. The animals were housed three per cage in a regulated environment (20 ± 1°C 50 ± 5% humidity, with light 8:00 AM to 8:00 PM) prior to use in the test.
Each test animal was placed in a transparent plastic cage (27 x 43 x 25 cm) with a layer of wood shavings on the floor. Drinking water was available. Cages were placed in such a way that visual interaction between animals was avoided. A mirror was positioned behind each cage to improve the recording of behaviors. Each animal was initially allowed 20 minutes to get used to its surroundings. Anesthesia was then achieved by using isofurane (starting 4%, then 1.5% in a mixture of […] nitrous oxide and 1:3 oxygen). The animal was suspended by its tail, the rectum was gently emptied with a cotton-capped stalk, and a coloscope was inserted through the anus. This designed endoscope has a lateral slot that allows for puncture of the intestinal wall under visual control, using a 51-mm-long needle (26 ga), at about 35 mm from the anal margin. Injected solutions were either 50 µL 5% formalin, or the same volume of isotonic saline. Animals were allowed to recover from anesthesia as soon as the injection was completed (about 1 minute), and the observation period was started and continued for 2 hours. Thirty minutes after the end of the observation test, an IV injection of Evans Blue (1%) was administered, and 30 minutes later the animal was sacrificed. The abdomen was opened. The injection site and the zone of diffusion of Evans Blue were recorded by image analysis software. Data from rats in which the spread of the dye was not restricted to the sigmoid wall were discarded.
As listed in increasing order of pain intensity, these behaviors were: (i) abdominal licking and nibbling (L), (ii) body stretching, i.e., backward extension of the hind limbs (B), (iii) contraction of the flanks, sometimes evolving to a stretching attitude (C), and (iv) whole body contraction, the rat standing with its back curved, occasionally further graded according to the duration of the given episode: W1 for less than 30 seconds, W2 between 30 seconds and 1 minute, and W3 for more than 1 minute. Behaviors were recorded for each animal throughout the 2-hour test on individual charts. A pain score (S) was then calculated for each of the successive 15-minute periods, using the following formula: S = 1L + 2B + 3C + 4W1 + 5W2 + 6W3 [formula] whereby the pain score was proportional to (i) the number of episodes of each selected behavior, and (ii) the coefficient, from 1 to 6, attributed to the given behaviors.
All compounds were dissolved in saline. Subcutaneous injection of vehicle was given in a volume of […]. Formalin was purchased from Prolabo.
Statistical significance between each group was determined by using a one-way ANOVA followed by Student's unpaired t-test. Differences were considered statistically significant at p <0.05.
Hyperalgesia is induced by intramural injection of formalin (5%, 50 µL/rat) into the colonic wall in unfasted female Sprague-Dawley rats. Gabapentin and CI-1008 were tested at 100, 300, 500 and 100, 200 mg/kg sc, respectively. […] The maximal inhibitory effect was observed after 500 mg/kg of gabapentin and 200 mg/kg of CI-1008.

[3] = tested on: gastric lesions caused by indomethacin; experiment: Indomethacin-induced gastric lesions in rats (gabapentin pretreatment); assay type: in vivo, Male Sprague-Dawley rats; conditions: for gastric lesion (square area of visible lesions): indomethacin alone 42.6 ± 5.2
Procedure: Gabapentin was evaluated in animals to determine its ability to prevent gastric lesions otherwise caused by indomethacin.
Male Sprague-Dawley rats weighing 240 to 250 g were fasted for 24 hours and allowed free access to water prior to experiment. All test drugs were given intragastrically. Rats were pretreated with different doses of gabapentin at doses of 40 and 60 mg. Thirty minutes later indomethacin (25 mg/kg) was administered. Another group of rats received 10 mg of gabapentin twice, 3 hours apart, followed by indomethacin administration. Three hours after indomethacin treatment, the rats were killed and gastric lesions were assessed. The severity of the lesions were determined by the measurement of the square area (mm^2) of visible lesions.

[4] = 1 mg/kg orally 60 min before indomethacin 80 mg/kg, 4 hours post-indomethacin, average ± standard error
[5] = 10 mg/kg orally 60 min before indomethacin 80 mg/kg
[6] = 100 mg/kg orally 60 min before indomethacin 80 mg/kg
[7] = 200 mg/kg orally 60 min before indomethacin 80 mg/kg

## CC(C)C[C@H](CN)CC(=O)O [CI-1008, (S)-3-(aminomethyl)-5-methylhexanoic acid]
[1]; [4]
  % Area Damaged: 8.07 ± 2.19%
[1]; [5]
  % Area Damaged: 4.07 ± 0.42%
[1]; [6]
  % Area Damaged: 1.99± 0.25 %
[1]; [7]
  % Area Damaged: 0.34 ± 0.06 %
[2]; 100 mg/kg sc
  % Antinociception: 18.55%
[2]; 200 mg/kg sc
  % Antinociception: 70.81%
[2]
  pain score induced by intracolonic formalin (in words): significantly and dose-dependently decreased

## NCC1(CC(=O)O)CCCCC1 [Gabapentin, 1-(aminomethyl)-cyclohexane acetic acid]
[3]; gabapentin 10 mg twice, 3 hours apart, followed by indomethacin 25 mg/kg
  gastric lesion (square area of visible lesions): 4.2 ± 0.39 mm^2
[3]; gabapentin 40 mg intragastrically 30 min before indomethacin 25 mg/kg, assessed 3 hours after indomethacin, mean ± SEM
  gastric lesion (square area of visible lesions): 22.3 ± 2.8 mm^2
[3]; gabapentin 60 mg/kg (so in the source) intragastrically 30 min before indomethacin 25 mg/kg
  gastric lesion (square area of visible lesions): 16.5 ± 2.2 mm^2
[3]; gabapentin pretreatment before indomethacin 25 mg/kg
  gastric bleeding: dramatically reduced
[1]; [4]
  % Area Damaged: 2.99 ± 0.46%
[1]; [5]
  % Area Damaged: 3.96 ± 0.35%
[1]; [6]
  % Area Damaged: 1.87 ± 0.1%
[1]; [7]
  % Area Damaged: 1.43 ± 0.40%
[2]; 0.3 mg/kg sc (so in the source)
  % Antinociception: -7.73%
[2]; 100 mg/kg sc
  % Antinociception: 13.62%
[2]; 300 mg/kg sc
  % Antinociception: 55.07%
[2]; 500 mg/kg sc
  % Antinociception: 88.01%
[2]
  pain score induced by intracolonic formalin (in words): significantly and dose-dependently decreased

Reference: patent EP0974351A2, “Medicament for preventing and treating gastrointestinal damage” (JOUVEINAL, priority 1998, dated 2000)
